# Data from publication PMC10322702 (Nature Chemistry, 2023).
# Values joined by “and” are separate entries in the source; they are usually repeats but may differ in a detail not shown here. Identical values can stand only once. Numbered stars: 1 amine (or outer) side, 2 acyl side, 3 side chain; on linkers, the order of the positions; unused ones are H or OH. Bridge positions count the residues as written; N and C are the ends. Square brackets hold non-standard residues; d marks the D form. Peptide text beside a SMILES is read from it. Acbc(cis-1,3) = O=C([C@H]1C[C@@H](N[*:1])C1)[*:2]
# Assays:
# SARS-CoV-2 M^pro [1] = biological target: T1, SARS-CoV-2 M^pro (Severe acute respiratory syndrome coronavirus 2, UniProt P0DTD1); assay: biochemical; format: binding; details: read-out: ka (kinetic association)
# SARS-CoV-2 M^pro [2] = biological target: T1, SARS-CoV-2 M^pro; assay: biochemical; format: biochemical
# [3] = Cytotoxicity of GM4 and related macrocycles; format: cell-based; details: at concentrations as high as 100 µM
# [4] = Antiviral activity in cells of GM4 and related macrocycles; format: cell-based
# M^pro = M^pro (Severe acute respiratory syndrome coronavirus 2, UniProt P0DTD1); format: biochemical, SARS-CoV-2
# [5] = Serum stability assay in human serum (LC/MS)
compound,measurement,setting,value
"CC(C)C[C@@H]1NC(=O)[C@H](CC(N)=O)NC(=O)[C@H](CC(C)C)NC(=O)[C@H]2C[C@H](C2)NC(=O)[C@H](Cc2c[nH]cn2)NC(=O)[C@H](Cc2ccccc2)NC(=O)[C@@H](Cc2ccc(O)cc2)NC(=O)CSC[C@H](C(N)=O)NC(=O)CNC(=O)[C@@H]2CCCN2C(=O)[C@H](CCCNC(=N)N)NC(=O)[C@H](Cc2ccc(O)cc2)NC(=O)CNC1=O [GM4] ({CH2CO}-[dY]FH[Acbc(cis-1,3)]LNLGYRPG[dC]-NH2; thioether N-13)",kon,SARS-CoV-2 M^pro [1],100000 M⁻¹ s⁻¹
same,IC50,SARS-CoV-2 M^pro [2],50 nM
same,inhibition at 0.102 µM,SARS-CoV-2 M^pro [2],84.7%
same,inhibition at 0.309 µM,SARS-CoV-2 M^pro [2],97.9%
same,inhibition at 0.933 µM,SARS-CoV-2 M^pro [2],100%
same,inhibition at 2.75 µM,SARS-CoV-2 M^pro [2],100%
same,inhibition at 8.32 µM,SARS-CoV-2 M^pro [2],100%
same,cytotoxicity,[3],no cytotoxicity
same,antiviral activity in cells,[4],do not manifest obvious antiviral activity
same,hydrolysis of the peptide by M^pro,M^pro,lack of efficient GM4 hydrolysis
same,Remaining peptide (%),"[5]; 37 °C, incubation time 1 h, relative to 0 h = 100%, technical replicates, 60 min",104.39% and 106.19%
same,Remaining peptide (%),"[5]; 37 °C, incubation time 4 h, relative to 0 h = 100%, technical replicates, 240 min",95.61% and 97.60%
same,Remaining peptide (%),"[5]; 37 °C, incubation time 8 h, relative to 0 h = 100%, technical replicates, 480 min",99.57% and 100.45%
same,Remaining peptide (%),"[5]; 37 °C, incubation time 24 h, relative to 0 h = 100%, technical replicates, 1440 min",95.67% and 101.18%
same,Remaining peptide (%),"[5]; 37 °C, incubation time 50 h, relative to 0 h = 100%, technical replicates, 3000 min",76.05% and 78.63%
same,Remaining peptide (%),"[5]; 37 °C, incubation time 100 h, relative to 0 h = 100%, technical replicates, 6000 min",55.56% and 56.89%
same,fold increase in serum (proteolytic) stability compared to alanine-substituted variant,[5]; GM4 vs GM4γ^14A,12 fold
same,half-life at 10 μM,[5]; human,5.25 days
same,"remaining at 1 h, 10 μM","[5]; human, Remaining peptide (%), 37 °C, incubation time 1 h, relative to 0 h = 100%, technical replicates",104%
same,"remaining at 4 h, 10 μM","[5]; human, Remaining peptide (%), 37 °C, incubation time 4 h, relative to 0 h = 100%, technical replicates",95.7%
same,"remaining at 8 h, 10 μM","[5]; human, Remaining peptide (%), 37 °C, incubation time 8 h, relative to 0 h = 100%, technical replicates",97.7%
same,"remaining at 24 h, 10 μM","[5]; human, Remaining peptide (%), 37 °C, incubation time 24 h, relative to 0 h = 100%, technical replicates",82.2%
same,"remaining at 50 h, 10 μM","[5]; human, Remaining peptide (%), 37 °C, incubation time 50 h, relative to 0 h = 100%, technical replicates",67.9%
same,"remaining at 100 h, 10 μM","[5]; human, Remaining peptide (%), 37 °C, incubation time 100 h, relative to 0 h = 100%, technical replicates",55.7%
